Test results published in patent US6809208B2, “3-Arylbenzofuranones with electron-withdrawing substituents as stabilizers” (Ciba Specialty Chemicals Corporation, priority 2000, dated 2004).

How the values were obtained:
[1] = Light-colored SBR-vulcanisate, ozone atmosphere for 96 hours: crack formation; set-up: key: grade 0: Grade 0 denotes no cracks; grade 1 denotes narrow flat cracks; grade 2 denotes moderately broad, moderately deep cracks, clearly visible; grade 3 denotes broad and deep cracks; conditions: 2.0 phr stabilizer, ozone 50 pphm, 40° C., dynamic elongation, without stabilizer grade 2
Description: (§1) 100 parts by weight of Cariflex®S-1502 (styrene/butadiene rubber, Shell) are processed at 60° C., in a mixing mill, with 30.0 parts by weight of Kronos®CL 220 [titanium dioxide (pigment), Kronos Titan GmbH], 30.0 parts by weight of Aktisil®MM [kaolin (filler), Hoffmann Mineral, Neuburg/Donau], 5.0 parts by weight of Naftolen®N 401 [plasticiser, Metallgesellschaft], 10.0 parts by weight of zinc oxide [vulcanization activator], 2.0 parts by weight of stearic acid [vulcanization activator], 2.0 parts by weight of sulfur [vulcanizing agent], 1.0 part by weight of Vulkacit®MOZ [vulcanization accelerator, Bayer], 0.25 part by weight of Vulkacit®Thiuram [vulcanization accelerator, […], to form a homogeneous mixture, the vulcanization system (sulfur, Vulkacit®MOZ and Vulkacit®Thiuram) not being added until the end of the mixing process. The mixture is vulcanized in electrical vulcanization presses at 150° C. until T95 is reached in the rheometer curves to form elastomer plates 2 mm thick, 21 cm long and 8.0 cm wide.
Some of the elastomer plates so obtained are tested for the action of ozone according to the ASTM standard D 3395-86 while subject to dynamic elongation. In this test the plates are first stored for 30 days in a standard atmosphere [23/50 SN-ISO 291]. Test specimens measuring 20 cm by 1 cm are then punched out and exposed to an ozone atmosphere for 96 hours (ozone content: 50 pphm; temperature: 40° C.; humidity: 50% rel.; elongation: 0 to 25%; elongation rate: 0.5 Hz; number of load cycles: approximately 173 000). The test plates are then assessed for crack formation according to ASTM D 3395-86. Grade 0 denotes no cracks; grade 1 denotes narrow flat cracks; grade 2 denotes moderately broad, moderately deep cracks, clearly visible; grade 3 denotes broad and deep cracks. The lower the grade number, the better the stabilization of the elastomer plates.

[2] = Light-colored SBR-vulcanisate, ozone atmosphere for 48 hours: crack formation; set-up: key: grade 0: Grade 0 denotes no cracks; grade 1 denotes narrow flat cracks; grade 2 denotes moderately broad, moderately deep cracks, clearly visible; grade 3 denotes broad and deep cracks; conditions: 1.0 phr stabilizer, ozone 50 pphm, 40° C., dynamic elongation, without stabilizer grade 1-2
Description: (§2) 100 parts by weight of Cariflex®S-1502 (styrene/butadiene rubber, Shell) are processed at 60° C., in a mixing mill, with 30.0 parts by weight of Kronos®CL 220 [titanium dioxide (pigment), Kronos Titan GmbH], 30.0 parts by weight of Aktisil®MM [kaolin (filler), Hoffmann Mineral, Neuburg/Donau], 5.0 parts by weight of Naftolen®N 401 [plasticizer, Metallgesellschaft], 10.0 parts by weight of zinc oxide [vulcanization activator], 2.0 parts by weight of stearic acid [vulcanization activator], 2.0 parts by weight of sulfur [vulcanizing agent], 1.0 part by weight of Vulkacit®MOZ [vulcanisation accelerator, Bayer], 0.25 part by weight of Vulkacit®Thiuram [vulcanization accelerator, Bayer] and 1.0 part by weight of the stabilizer to be tested according to Table 24, to form a homogeneous mixture, the vulcanization system (sulfur, Vulkacit®MOZ and Vulkacit®Thiuram) not being added until the end of the mixing process. The mixture is vulcanized in electrical vulcanization presses at 150° C. until T95 is reached in the rheometer curves to form elastomer plates 2 mm thick, 21 cm long and 8.0 cm wide.
Some of the elastomer plates so obtained are tested for the action of ozone according to the ASTM standard D 3395-86 while subject to dynamic elongation. […] The test plates are then assessed for crack formation according to ASTM D 3395-86. […]

[3] = Light-colored SBR-vulcanisate (Example 23): ΔL-color after 3 weeks in diffuse daylight; conditions: 2.0 phr stabilizer; 3 weeks at room temperature in diffuse daylight; scale 0 to 100, 100 = no discoloration; without stabilizer 97
Description: as §1
(§3) The remaining elastomer plates are stored for 3 weeks at room temperature in a standard laboratory atmosphere in diffuse daylight. The ΔL-color of those plates is then determined according to DIN 6167, which corresponds to a scale of from 0 to 100. No discoloration is indicated by a value of 100.

[4] = Light-colored SBR-vulcanisate (Example 22): ΔL-color after 3 weeks in diffuse daylight; conditions: 1.0 phr stabilizer; 3 weeks at room temperature in diffuse daylight; scale 0 to 100, 100 = no discoloration; without stabilizer 94
Description: as §2, §3

[5] = Stabilization of multiple-extruded polypropylene; conditions: 0.05% of compound; heating zones 260, 270, 280° C.; measured at 230° C./2.16 kg; without compound 17.5
Description: 1.3 kg of polypropylene powder (Profax 6501), which has been prestabilized with 0.025% of Irganox®1076 (n-octadecyl 3-[3,5-di-tert-butyl-4-hydroxyphenyl]propionate) (melt index 3.2 g/10 min, measured at 230° C./2.16 kg) are blended with 0.05% of Irganox®1010 (pentaerythritol tetrakis[3-(3,5-di-tert-butyl-4-hydroxyphenyl)propionate]), 0.05% of calcium stearate, 0.03% of DHT 4A® (Kyowa Chemical Industry Co., Ltd., [Mg4.5Al2(OH)13CO3.3.5H2O]) and 0.05% of compound of Table 4. This blend is then extruded in an extruder having a cylinder diameter of 20 mm and a length of 400 mm at 100 rpm, the 3 heating zones being adjusted to the following temperatures: 260, 270, 280° C. The extrudate is cooled by drawing it through a water bath and is then granulated. This granulate is repeatedly extruded. After 3 extrusions, the melt index is measured (at 230° C./2.16 kg). A substantial increase in the melt index denotes pronounced chain degradation, i.e. poor stabilization.

[6] = Discoloration of powder coatings based on a carboxy-functional polyester cured in electric and gas ovens; conditions: total 0.60% stabilizers rel. to components 1 to 5
Description: To prepare the powder coating composition based on a carboxy-functional polyester, components 1 to 6 (formulation without additives) or components 1 to 7 (formulation containing the stabilizers) are employed in the sequence indicated (cf. Table 13).
The components weighed out in this way are mixed using a planetary stirrer. The mixture is then extruded on a prism extruder at 300 revolutions/minute and at 100° C. and is rolled out. The powder coating composition is coarsely comminuted using a bench cutter and is ground in a Retsch ZM-1 ultracentrifugal mill with a 0.75 mm annular-perforation screen at 15,000 revolutions/minute. Finally, the powder is passed through a 30 μm screen on a centrifugal screening machine.
The finished powder coating composition is sprayed electrostatically to a coat thickness of 70 μm onto aluminium panels using an ESB-Wagner corona cup gun at 60 kV. Some of the coated panels are cured at 180° C. for 90 minutes in an electric oven. The remaining coated panels are cured at 180° C. for 45 minutes in a gas oven with an NO2 content of 20 ppm. The yellowness index (YI) of the samples is determined in accordance with ASTM D 1925-70. Low YI values denote little discoloration, high YI values denote severe discoloration of the samples.

[7] = Stabilization of polyethylene during processing (Brabender plastograph); conditions: 0.05 part compound and 0.05 part Irganox 1010 per 100 parts polyethylene; 220° C., 50 rpm; without compound 9.7
Description: 100 parts of polyethylene powder (Lupolen®5260 Z) are blended with 0.05 part of Irganox®1010 (pentaerythritol tetrakis[3-(3,5-di-tert-butyl-4-hydroxyphenyl)propionate]) and 0.05 part of a compound of Table 5 and the blend is kneaded in a Brabender plastograph at 220° C. and 50 rpm. During this time the kneading resistance is recorded continuously as torque. In the course of the kneading time the polymer begins to crosslink after prolonged constancy, as can be determined by the rapid increase in torque. The time taken until a marked increase in torque is shown in Table 5 as a measure of the stabilizing action. The longer this time is the better the stabilizing action.

[8] = Stabilization of polycarbonate (yellowness index of extruded granulate); conditions: 0.05% stabilizer; granulate after extrusion at a maximum of 280° C.; without stabilizer 10.3
Description: 1.0 kg of a polycarbonate powder which has been dried for 8 hours at 120° C. in a vacuum drying oven (Lexan®145, of General Electric) is charged with the stabilizers listed in Table 22 and is then mixed for 2 minutes in a Henschel mixer. This mixture is then extruded in a Schwabenthan extruder at a maximum of 280° C. The polymer string is then granulated. The granulate so obtained is packed into 1 cm thick polystyrene boxes and the yellowness index (YI) is determined according to ASTM D 1925-70. Low YI values denote little discoloration, high YI values high discoloration of the samples. […]

[9] = Stabilization of polycarbonate (time at 135° C. until YI = 20); conditions: 0.05% stabilizer; without stabilizer 1560
Description: 1.0 kg of a polycarbonate powder which has been dried for 8 hours at 120° C. in a vacuum drying oven (Lexan®145, of General Electric) is charged with the stabilizers listed in Table 19 and is mixed for 2 minutes in a Henschel mixer. This mixture is then extruded in a Schwabenthan extruder at a maximum of 280° C. The polymer string is then granulated. Using an injection moulding machine, plates having a layer thickness of 2 mm are then moulded from the granulate so obtained at a maximum of 300° C. These plates are then aged in a circulating air oven at 135° C., the time in hours until the yellowness index (YI) reaches a value of 20 according to ASTM D 1925-70 being measured. […]

[10] = Stabilization of polycarbonate (oven ageing at 135° C., yellowness index and transmission); conditions: 0.05% stabilizer
Description: This mixture is then extruded in a Schwabenthan extruder at a maximum of 280° C. The polymer string is then granulated. Using an injection moulding machine, plates having a layer thickness of 2 mm are then moulded from the granulate so obtained at a maximum of 300° C. […] Low YI values denote little discoloration, high YI values high discoloration of the patterns. […] The results are compiled in Tables 17 and 18.

[11] = Stabilization of multiple-extruded polypropylene at high temperature; set-up: unit not given here; conditions: stabilizer 0.100% by weight, measured at 230° C./2.16 kg
Description: This blend is then extruded in an extruder having a cylinder diameter of 20 mm and a length of 400 mm at 100 rpm, the 3 heating zones being adjusted to the following temperatures: 280, 320, 340° C. The extrudate is cooled by drawing it through a water bath and is then granulated. This granulate is repeatedly extruded. […] A substantial increase in the melt index denotes pronounced chain degradation, i.e. poor stabilization.

CC(C)(C)c1cc2c(c(C(C)(C)C)c1)OC(=O)C2c1cc(C#N)cc(C#N)c1 (stereo not drawn) [Compound (108)]
Crack formation according to ASTM D 3395-86 [1]: grade 1 | Crack formation according to ASTM D 3395-86 [2]: grade 0-1 | ΔL-color according to DIN 6167 [3]: 95 | ΔL-color according to DIN 6167 [4]: 96

CCCCCCCCOC(=O)c1ccc(C2C(=O)Oc3c2cc(C(C)(C)C)cc3C(C)(C)C)cc1 (stereo not drawn) [Compound (110), 5,7-di-tert-butyl-3-(4-n-octyloxycarbonylphenyl)-3H-benzofuran-2-one]
Melt index after 3 extrusions [5]: 4.7 | Yellowness index after 90 minutes (ASTM D 1925-70) ([6]; Curing for 45 minutes in a gas oven at 180° C., NO2 content 20 ppm, without stabilizer 4.2): 3.4 | Yellowness index after 90 minutes (ASTM D 1925-70) ([6]; Curing for 90 minutes in an electric oven at 180° C., without stabilizer 3.1): 2.7 | Time until increase in torque [7]: 27.5 min

Cc1cc(OP(Oc2cc(C)c(C(C)(C)C)cc2C(C)(C)C)c2ccc(-c3ccc(P(Oc4cc(C)c(C(C)(C)C)cc4C(C)(C)C)Oc4cc(C)c(C(C)(C)C)cc4C(C)(C)C)cc3)cc2)c(C(C)(C)C)cc1C(C)(C)C [GSY ®P101]
Yellowness index [8]: 5.1

CC(C)(C)c1ccc(OP(Oc2ccc(C(C)(C)C)cc2C(C)(C)C)Oc2ccc(C(C)(C)C)cc2C(C)(C)C)c(C(C)(C)C)c1 [Irgafos ®168, tris(2,4-di-tert-butylphenyl)phosphite, reference compound]
Time in hours at 135° C. to YI = 20 [9]: 2000 h | Yellowness index prior to oven-ageing ([10]; 2 mm plates, ASTM D 1925-70): 3.4 | Transmission in % prior to oven-aging ([10]; at 450 nm): 84.7% | Transmission in % after 2000 hours at 135° C. ([10]; at 450 nm, without stabilizer 76.4): 77.8% | Yellowness index after 2000 hours at 135° C. ([10]; circulating air oven, without stabilizer 25.0): 23.5 | Melt index after 5 extrusions ([11]; 280° C.): 9.7 | Melt index after 5 extrusions ([11]; 320° C.): 43.8 | Melt index after 5 extrusions ([11]; 340° C.): 80.1

CC(C)Nc1ccc(Nc2ccccc2)cc1 [Vulkanox ® 4010, 4-isopropylamino-diphenylamine, reference compound]
Crack formation according to ASTM D 3395-86 [1]: grade 0 | Crack formation according to ASTM D 3395-86 [2]: grade 0 | ΔL-color according to DIN 6167 [3]: 56 | ΔL-color according to DIN 6167 [4]: 70
